Test system: U266 multiple myeloma cells
Test: MTT assay
Type: cell-based
Conditions: Homo sapiens, U-266, 72 h, read-out: U266 IC50

- IC50: 280 ± 30 nM
Compound: CC[C@@H]1C(=O)N(C)c2cnc(Nc3ccc(C(=O)NC4CCN(C)CC4)cc3OC)nc2N1C1CCCC1 [BI 2536]

Reference: paper PMC12486458 (Journal of Enzyme Inhibition and Medicinal Chemistry, 2025)
